{
  "source": "patent US20250186470A1",
  "about": "“Compositions and Methods Using Lactulose for Treating Disease” (THE UNIVERSITY OF CHICAGO, priority 2023, published 2025)",
  "key": {"[1]": {"test_system": "B. longum", "assay": "B. longum growth, pH and SCFA in BHIS with 50 mM lactulose or sucrose", "assay_type": "cell-based, Bifidobacterium longum", "text": "FIGS. 4A-4D: Lactulose-mediated Bifidobacteria expansion is associated with exclusion of antibiotic-resistant Enterococcus species. (A) Relative abundance of potentially pathogenic taxa Enterococcus and Proteobacteria were plotted based on lactulose exposure (no lactulose, left; lactulose, right) and relative abundance of Bifidobacteria (<10%, blue; ≥10%, red). Each point represents a single sample with the following sample sizes: total n=262; no lactulose, <10%, n=79; no lactulose, ≥10%, n=24; lactulose, <10%, n=87; lactulose, ≥10%, n=72. Median and interquartile range are indicated by the horizontal line and box, respectively. The lower vertical line depicts Q1-1.5*IQR and the upper vertical line depicts Q3+1.5*IQR. Statistical comparisons between individual groups were analyzed using a two-tailed Wilcoxon rank sum test. P-values are adjusted for multiple comparisons using the Benjamini-Hochberg procedure and represented as follows: *, p<0.05; **, p<0.01; ***, p<0.001; ****, p<0.0001. (B) A human-derived B. longum species was grown in BHIS media (blue) or BHIS supplemented with 50 mM lactulose (red) or 50 mM sucrose (green), and growth curves (OD600 over time) are shown. […] This graph is representative of three independent experiments, also done in triplicate, all with consistent results. (C) Schematic of experimental design for B. longum (purple bacilli) and VRE (green cocci) co-culture. B. longum and VRE were grown to steady state and diluted to low density (OD600=0.05) prior to inoculation in either BHIS or BHIS supplemented with 50 mM lactulose. Cultures were inoculated with both bacteria simultaneously (top) or B. longum was given either a 24-hour or 48-hour lead time prior to VRE inoculation (bottom). (D) After 24-hours of co-culture, serial dilutions of three replicates were plated for VRE c.f.u. counts. Each replicate is plotted as an individual point, and the median is represented by the horizontal line. […]\n(C and D) Supernatant BA quantified after 24 h of B. longum growth in media containing 10 μg/ml conjugated primary BA ((C) TCA or (D) GCA). n=4 all conditions. […]"}, "[2]": {"test_system": "B. longum", "protocol": "B. longum was grown in regular media (blue) or media supplemented with 50 mM lactulose (red) or sucrose (green). (A) pH before and after 24 h of growth (n=3 for 0 h; n=6 for 24 h). (B) SCFA concentrations after 24 h of growth. n=6 all conditions. […] Plots are representative of three independent experiments with ≥3 technical replicates all with consistent results. TCA: taurocholic acid, GCA: glycocholic acid, CA: cholic acid, CDCA: chenodeoxycholic acid, DCA: deoxycholic acid, and LCA: lithocholic acid. (E) Schematic of B. longum gavage, lactulose administration, and stool collection in ex-GF mice. […] (I-K) SCFA concentrations before and 10-days after Bifidobacteria inoculation. Each dot represents one sample from each mouse. […] (L) Primary, (M) conjugated primary, and (N) secondary BA were measured at indicated timepoints. Each dot represents one sample from each mouse. […] Short chain fatty acids (SCFA, i.e. butyrate, acetate, propionate, and succinate) were derivatized with pentafluorobenzyl bromide (PFBBr) and analyzed via negative ion collision induced-gas chromatography-mass spectrometry ([-]CI-GC-MS, Agilent 8890) 92. Eight bile acids (BA, i.e. primary: cholic acid; conjugated primary: glycocholic acid, taurocholic acid; secondary: deoxycholic acid, lithocholic acid [LCA], isodeoxycholic acid; modified secondary: alloisolithocholic acid [alloisoLCA] and 3-oxolithocholic acid [3-oxoLCA]) were quantified (μg/mL) by negative mode liquid chromatography-electrospray ionization-quadrupole time-of-flight-MS ([-]LC-ESI-QTOF-MS, Agilent 6546). […] All mouse studies were approved by The University of Chicago Institutional Animal Care and Use Committee (IACUC, Protocol 72599). For germ-free studies, 6-18 week-old male and female C57BL/6 mice were used."}, "[3]": {"details": "lactulose 10 days, B. longum colonized mice"}},
  "data": [
    {"smiles": "OC[C@H]1O[C@@H](O[C@@H]2[C@@H](CO)OC(O)(CO)[C@H]2O)[C@H](O)[C@@H](O)[C@H]1O", "note": "(mixture of isomers) [Lactulose, lactulose]", "values": [
      {"measurement": "Acetate in B. longum culture", "setting": "[1]; 50 mM lactulose, 24 h", "value": "acetate production"},
      {"measurement": "Media pH after B. longum growth", "setting": "[1]; 50 mM lactulose, 24 h", "value": "media acidification"},
      {"measurement": "B. longum culture growth (OD600)", "setting": "[1]; BHIS supplemented with 50 mM sugar", "value": "augmented"},
      {"measurement": "Stool water content", "setting": "[2]; GF mice, 20 g/L lactulose in water", "value": "increased"},
      {"measurement": "Fecal acetate concentration", "setting": "[2]; [3]", "value": "elevated"},
      {"measurement": "Fecal conjugated BA concentrations", "setting": "[2]; [3]", "value": "reduced"},
      {"measurement": "Fecal unconjugated primary BA concentrations", "setting": "[2]; [3]", "value": "elevated"},
      {"measurement": "Lactulose in stool", "setting": "[2]; mouse, in vivo", "value": "detectable"}
    ]}
  ]
}
